Experimental data as given in ChEMBL document CHEMBL3244053, “Structural modification study of bis(substituted aminoalkylamino)anthraquinones. An evaluation of the relationship of the [2-[(2-hydroxyethyl)amino]ethyl]amino side chain with antineoplastic activity” (1979).
The source made the active and inactive calls. The calls are words filed in the database; no cut-off is given here.

How the values were obtained:
B16 [1] = assay: Antineoplastic activity against mouse B16 cells allografted in BDF1 mouse at 2 mg/kg qd for 9 days relative to control; format: functional
Colon 26 [2] = assay: Antineoplastic activity against mouse Colon 26 cells allografted in CDF1 mouse assessed as survival at 0.39 mg/kg qd for 9 days; format: functional, organism-based; set-up: dose 0.39 mg/kg
Colon 26 [3] = assay: Antineoplastic activity against mouse Colon 26 cells allografted in CDF1 mouse at 0.39 mg/kg qd for 9 days relative to control; format: functional
P388 [4] = assay: Antineoplastic activity against mouse P388 cells allografted in CDF1 mouse at 1 mg/kg qd for 9 days relative to control; format: functional
B16 [5] = assay: Antineoplastic activity against mouse B16 cells allografted in BDF1 mouse assessed as survival at 0.25 mg/kg qd for 9 days; format: functional, organism-based; set-up: dose 0.25 mg/kg
P388 [6] = assay: Antineoplastic activity against mouse P388 cells allografted in CDF1 mouse at 0.5 mg/kg qd for 9 days relative to control; format: functional
L1210 [7] = assay: Antineoplastic activity against mouse L1210 cells allografted in CDF1 mouse at 10.8 mg/kg qd for 9 days relative to control; format: functional
P388 [8] = assay: Antineoplastic activity against mouse P388 cells allografted in CDF1 mouse assessed as survival at 0.12 mg/kg qd for 9 days; format: functional, organism-based; set-up: dose 0.12 mg/kg
B16 [9] = assay: Antineoplastic activity against mouse B16 cells allografted in BDF1 mouse assessed as survival at 1 mg/kg qd for 9 days; format: functional, organism-based; set-up: dose 1 mg/kg
Colon 26 [10] = assay: Antineoplastic activity against mouse Colon 26 cells allografted in CDF1 mouse assessed as survival at 1.08 mg/kg qd for 9 days; format: functional, organism-based; set-up: dose 1.08 mg/kg
P388 [11] = assay: Antineoplastic activity against mouse P388 cells allografted in CDF1 mouse at 0.12 mg/kg qd for 9 days relative to control; format: functional
L1210 [12] = assay: Antineoplastic activity against mouse L1210 cells allografted in CDF1 mouse at 1 mg/kg qd for 9 days relative to control; format: functional
P388 [13] = assay: Antineoplastic activity against mouse P388 cells allografted in CDF1 mouse at 0.06 mg/kg qd for 9 days relative to control; format: functional
P388 [14] = assay: Antineoplastic activity against mouse P388 cells allografted in CDF1 mouse at 2 mg/kg qd for 9 days relative to control; format: functional
P388 [15] = assay: Antineoplastic activity against mouse P388 cells allografted in CDF1 mouse assessed as survival at 2 mg/kg qd for 9 days; format: functional, organism-based; set-up: dose 2 mg/kg
L1210 [16] = assay: Antineoplastic activity against mouse L1210 cells allografted in CDF1 mouse assessed as survival at 10.8 mg/kg qd for 9 days; format: functional, organism-based; set-up: dose 10.8 mg/kg
L1210 [17] = assay: Antineoplastic activity against mouse L1210 cells allografted in CDF1 mouse assessed as survival at 4 mg/kg qd for 9 days; format: functional, organism-based; set-up: dose 4 mg/kg
P388 [18] = assay: Antineoplastic activity against mouse P388 cells allografted in CDF1 mouse assessed as survival at 1 mg/kg qd for 9 days; format: functional, organism-based; set-up: dose 1 mg/kg
B16 [19] = assay: Antineoplastic activity against mouse B16 cells allografted in BDF1 mouse at 1 mg/kg qd for 9 days relative to control; format: functional
P388 [20] = assay: Antineoplastic activity against mouse P388 cells allografted in CDF1 mouse assessed as survival at 0.5 mg/kg qd for 9 days; format: functional, organism-based; set-up: dose 0.5 mg/kg
P388 [21] = assay: Antineoplastic activity against mouse P388 cells allografted in CDF1 mouse assessed as survival at 0.06 mg/kg qd for 9 days; format: functional, organism-based; set-up: dose 0.06 mg/kg
L1210 [22] = assay: Antineoplastic activity against mouse L1210 cells allografted in CDF1 mouse assessed as survival at 18 mg/kg qd for 9 days; format: functional, organism-based; set-up: dose 18 mg/kg
L1210 [23] = assay: Antineoplastic activity against mouse L1210 cells allografted in CDF1 mouse at 4 mg/kg qd for 9 days relative to control; format: functional
B16 [24] = assay: Antineoplastic activity against mouse B16 cells allografted in BDF1 mouse assessed as survival at 2 mg/kg qd for 9 days; format: functional, organism-based; set-up: dose 2 mg/kg
Colon 26 [25] = assay: Antineoplastic activity against mouse Colon 26 cells allografted in CDF1 mouse assessed as survival at 0.69 mg/kg qd for 9 days; format: functional, organism-based; set-up: dose 0.69 mg/kg
L1210 [26] = assay: Antineoplastic activity against mouse L1210 cells allografted in CDF1 mouse at 2 mg/kg qd for 9 days relative to control; format: functional
Colon 26 [27] = assay: Antineoplastic activity against mouse Colon 26 cells allografted in CDF1 mouse at 1.08 mg/kg qd for 9 days relative to control; format: functional
L1210 [28] = assay: Antineoplastic activity against mouse L1210 cells allografted in CDF1 mouse at 18 mg/kg qd for 9 days relative to control; format: functional
Colon 26 [29] = assay: Antineoplastic activity against mouse Colon 26 cells allografted in CDF1 mouse at 0.69 mg/kg qd for 9 days relative to control; format: functional
B16 [30] = assay: Antineoplastic activity against mouse B16 cells allografted in BDF1 mouse at 0.5 mg/kg qd for 9 days relative to control; format: functional
L1210 [31] = assay: Antineoplastic activity against mouse L1210 cells allografted in CDF1 mouse assessed as survival at 2 mg/kg qd for 9 days; format: functional, organism-based; set-up: dose 2 mg/kg
B16 [32] = assay: Antineoplastic activity against mouse B16 cells allografted in BDF1 mouse assessed as survival at 0.5 mg/kg qd for 9 days; format: functional, organism-based; set-up: dose 0.5 mg/kg
B16 [33] = assay: Antineoplastic activity against mouse B16 cells allografted in BDF1 mouse at 0.25 mg/kg qd for 9 days relative to control; format: functional
P388 [34] = assay: Antineoplastic activity against mouse P388 cells allografted in CDF1 mouse assessed as survival at 0.25 mg/kg qd for 9 days; format: functional, organism-based; set-up: dose 0.25 mg/kg
P388 [35] = assay: Antineoplastic activity against mouse P388 cells allografted in CDF1 mouse at 0.25 mg/kg qd for 9 days relative to control; format: functional
L1210 [36] = assay: Antineoplastic activity against mouse L1210 cells allografted in CDF1 mouse assessed as survival at 1 mg/kg qd for 9 days; format: functional, organism-based; set-up: dose 1 mg/kg

How did the T/C (B16 [1]) turn out when O=C1c2c(O)ccc(O)c2C(=O)c2c(NCCNCCO)ccc(NCCNCCO)c21 [MITOXANTRONE] was run?
Its T/C is 231%.

What about the Activity (Colon 26 [2]) of the same compound?
The Activity was “Active”.

What about the T/C (Colon 26 [3]) of the same compound?
Its T/C is 259%.

And the T/C (P388 [4])?
The T/C was 381%.

And the Activity (B16 [5])?
The Activity was “Active”.

What about the T/C (P388 [6]) of the same compound?
Its T/C is 305%.

What about the T/C (L1210 [7]) of the same compound?
The T/C was 261%.

What about the Activity (P388 [8]) of the same compound?
Its Activity is “Active”.

And the Activity (B16 [9])?
Its Activity is “Active”.

What about the Activity (Colon 26 [10]) of the same compound?
The Activity was “Active”.

What about the T/C (P388 [11]) of the same compound?
The T/C was 210%.

And the T/C (L1210 [12])?
The T/C was 163%.

And the T/C (P388 [13])?
The T/C was 192%.

What about the T/C (P388 [14]) of the same compound?
Its T/C is 230%.

What about the Activity (P388 [15]) of the same compound?
The Activity was “Active”.

And the Activity (L1210 [16])?
The Activity was “Active”.

And the Activity (L1210 [17])?
Its Activity is “Active”.

And the Activity (P388 [18])?
Its Activity is “Active”.

What about the T/C (B16 [19]) of the same compound?
The T/C was 342%.

And the Activity (P388 [20])?
The Activity was “Active”.

And the Activity (P388 [21])?
Its Activity is “Active”.

What about the Activity (L1210 [22]) of the same compound?
Its Activity is “Active”.

What about the T/C (L1210 [23]) of the same compound?
Its T/C is 256%.

What about the Activity (B16 [24]) of the same compound?
Its Activity is “Active”.

And the Activity (Colon 26 [25])?
Its Activity is “Active”.

What about the T/C (L1210 [26]) of the same compound?
Its T/C is 198%.

What about the T/C (Colon 26 [27]) of the same compound?
The T/C was 353%.

And the T/C (L1210 [28])?
The T/C was 308%.

What about the T/C (Colon 26 [29]) of the same compound?
The T/C was 305%.

And the T/C (B16 [30])?
The T/C was 299%.

And the Activity (L1210 [31])?
The Activity was “Active”.

And the Activity (B16 [32])?
The Activity was “Active”.

What about the T/C (B16 [33]) of the same compound?
Its T/C is 186%.

And the Activity (P388 [34])?
Its Activity is “Active”.

What about the T/C (P388 [35]) of the same compound?
The T/C was 224%.

And the Activity (L1210 [36])?
The Activity was “Active”.
